Measurements reported in ChEMBL document CHEMBL1201862, “PubChem BioAssay data set” (2004).
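1) Cells in 96-well plates. 2) Compound, 48 h, 5 concentrations. 3) Linear interpolation between surrounding doses. 4) Unreached endpoint = highest concentration. Here, GI50 denotes the concentration required for 50% inhibition of growth.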 Active and inactive are the calls of the source. No stated cut-off is given here; in the data, active = GI50 up to about 1.1 µM and inactive = higher. Where a SMILES comes first, the peptide text is derived from it. Bridges are numbered along the chain shown (N, C = ends). [ ]: non-standard residue; d: D form. The star is where a group is joined. ξ: configuration not given here. ξNMePhe(4-NMe2) = CNC(Cc1ccc(N(C)C)cc1)C(=O)O; Picolinoyl(3-OH) = O=C(c1ncccc1O)*; ξPip(4-oxo) = O=C1CCNC(C(=O)O)C1; Phg = N[CH](C(=O)O)c1ccccc1; Abu = CC[CH](N)C(=O)O

How the values were obtained:
Assay in all cases: inhibition of tumour cell growth, NCI panel, 48 h
SNB-19 = tested on: SNB-19
CAKI-1 = tested on: CAKI-1
DMS-273 = tested on: DMS-273
NCI-H226 = tested on: NCI-H226
UACC-257 = tested on: UACC-257
SK-MEL-2 = tested on: SK-MEL-2
HL-60 = tested on: HL-60
OVCAR-5 = tested on: OVCAR-5
M14 = tested on: M14
HOP-18 = tested on: HOP-18
LOX IMVI = tested on: LOX IMVI
SF-295 = tested on: SF-295
HT-29 = tested on: HT-29
KM-20L2 = tested on: KM-20L2
SW-620 = tested on: SW-620
SN12C = tested on: SN12C
HCC 2998 = tested on: HCC 2998
M19-MEL = tested on: M19-MEL
HOP-92 = tested on: HOP-92
NCI-H460 = tested on: NCI-H460
OVCAR-3 = tested on: OVCAR-3
HCT-116 = tested on: HCT-116
HCT-15 = tested on: HCT-15
DMS-114 = tested on: DMS-114
KM12 = tested on: KM12
OVCAR-4 = tested on: OVCAR-4
HOP-62 = tested on: HOP-62
SR = tested on: SR
UO-31 = tested on: UO-31
LXFL 529 = tested on: LXFL 529
COLO 205 = tested on: COLO 205
Malme-3M = tested on: Malme-3M
OVCAR-8 = tested on: OVCAR-8
CCRF-CEM = tested on: CCRF-CEM
U-251 = tested on: U-251
A498 = tested on: A498
SF-268 = tested on: SF-268
TK-10 = tested on: TK-10
UACC-62 = tested on: UACC-62
NCI-H522 = tested on: NCI-H522
SK-MEL-5 = tested on: SK-MEL-5
SK-MEL-28 = tested on: SK-MEL-28
IGROV-1 = tested on: IGROV-1
RPMI-8226 = tested on: RPMI-8226
786-0 = tested on: 786-0
MOLT-4 = tested on: MOLT-4
NCI-H23 = tested on: NCI-H23
SNB-78 = tested on: SNB-78
SNB-75 = tested on: SNB-75
SF-539 = tested on: SF-539
SK-OV-3 = tested on: SK-OV-3
ACHN = tested on: ACHN
K562 = tested on: K562
A549 = tested on: A549
RXF 393 = tested on: RXF 393
EKVX = tested on: EKVX
Hs-578T = tested on: Hs-578T
MCF7 = tested on: MCF7
PC-3 = tested on: PC-3
T47D = tested on: T47D
DU-145 = tested on: DU-145
BT-549 = tested on: BT-549
NCI/ADR-RES = tested on: NCI/ADR-RES
MDA-N = tested on: MDA-N
MDA-MB-231 = tested on: MDA-MB-231
MDA-MB-435 = tested on: MDA-MB-435

Measured: GI50

COc1ccc(C(=O)C(C(=O)CCC(=O)Nc2ccc(C)c(C)c2)c2ccc(OC)cc2)cc1 (stereo unspecified)
inactive: SNB-19 > 10 µM | CAKI-1 > 100 µM | DMS-273 > 100 µM | NCI-H226 > 100 µM | UACC-257 > 100 µM | SK-MEL-2 > 100 µM | HL-60 > 100 µM | OVCAR-5 > 100 µM | M14 > 100 µM | HOP-18 > 100 µM | LOX IMVI > 100 µM | SF-295 > 100 µM | HT-29 > 100 µM | KM-20L2 > 100 µM | SW-620 > 100 µM | SN12C > 100 µM | HCC 2998 > 100 µM | M19-MEL > 100 µM | HOP-92 48.9 µM | NCI-H460 > 100 µM | OVCAR-3 > 100 µM | HCT-116 > 100 µM | DMS-114 > 100 µM | KM12 > 100 µM | OVCAR-4 > 100 µM | HOP-62 > 100 µM | SR > 100 µM | UO-31 > 100 µM | LXFL 529 > 100 µM | COLO 205 > 100 µM | Malme-3M > 100 µM | OVCAR-8 > 100 µM
> 100 µM: HCT-15

O=C(Nc1c(O)[nH]c(=S)[nH]c1=O)c1ccco1
> 100 µM: HCT-15
inactive: SNB-19 > 100 µM | CCRF-CEM > 100 µM | CAKI-1 > 100 µM | NCI-H226 > 100 µM | UACC-257 > 100 µM | SK-MEL-2 > 100 µM | HL-60 > 100 µM | U-251 > 100 µM | OVCAR-5 > 100 µM | A498 > 100 µM | M14 > 100 µM | HOP-18 > 100 µM | SF-268 > 100 µM | TK-10 > 100 µM | LOX IMVI > 100 µM | UACC-62 > 100 µM | SF-295 > 100 µM | NCI-H522 > 100 µM | SK-MEL-5 > 100 µM | SK-MEL-28 > 100 µM | IGROV-1 > 100 µM | HT-29 > 100 µM | KM-20L2 > 100 µM | RPMI-8226 > 100 µM | SW-620 > 100 µM | 786-0 > 100 µM | SN12C > 100 µM | M19-MEL > 100 µM | MOLT-4 > 100 µM | NCI-H23 > 100 µM | HOP-92 38.9 µM | NCI-H460 > 100 µM | SNB-78 > 100 µM | OVCAR-3 > 100 µM | HCT-116 > 100 µM | SNB-75 > 100 µM | SF-539 > 100 µM | DMS-114 > 100 µM | KM12 > 100 µM | SK-OV-3 > 100 µM | OVCAR-4 > 100 µM | HOP-62 > 100 µM | SR > 100 µM | UO-31 > 100 µM | LXFL 529 > 100 µM | ACHN > 100 µM | K562 > 100 µM | COLO 205 > 100 µM | Malme-3M > 100 µM | A549 > 100 µM | OVCAR-8 > 100 µM

Cn1ncnc1CCc1ccccc1
> 100 µM: HCT-15
inactive: CCRF-CEM > 100 µM | CAKI-1 > 100 µM | DMS-273 > 100 µM | NCI-H226 > 100 µM | UACC-257 > 100 µM | SK-MEL-2 > 100 µM | HL-60 > 100 µM | U-251 > 100 µM | OVCAR-5 > 100 µM | A498 > 100 µM | M14 > 100 µM | HOP-18 > 100 µM | SF-268 > 100 µM | TK-10 > 100 µM | LOX IMVI > 100 µM | UACC-62 > 100 µM | SF-295 > 100 µM | NCI-H522 > 100 µM | RXF 393 > 100 µM | SK-MEL-5 > 100 µM | SK-MEL-28 > 100 µM | IGROV-1 > 100 µM | HT-29 > 100 µM | KM-20L2 > 100 µM | RPMI-8226 > 100 µM | SW-620 > 100 µM | 786-0 > 100 µM | SN12C > 100 µM | M19-MEL > 100 µM | MOLT-4 > 100 µM | NCI-H23 > 100 µM | HOP-92 > 100 µM | NCI-H460 > 100 µM | SNB-78 > 100 µM | OVCAR-3 > 100 µM | HCT-116 > 100 µM | SNB-75 > 100 µM | SF-539 > 100 µM | DMS-114 > 100 µM | KM12 > 100 µM | SK-OV-3 > 100 µM | OVCAR-4 > 100 µM | HOP-62 > 100 µM | SR > 100 µM | UO-31 > 100 µM | LXFL 529 > 100 µM | ACHN > 100 µM | K562 > 100 µM | COLO 205 > 100 µM | Malme-3M > 100 µM | A549 > 100 µM | OVCAR-8 > 100 µM

CC(Cl)(CCC(Cl)C(C)(C)Cl)C(=O)CBr (stereo unspecified)
active: CCRF-CEM 0.877 µM
8.28 µM: HCT-15
inactive: SNB-19 30.3 µM | CAKI-1 14 µM | NCI-H226 16.8 µM | EKVX 16.4 µM | UACC-257 12.4 µM | SK-MEL-2 14.7 µM | HL-60 2.24 µM | U-251 15.6 µM | OVCAR-5 17.5 µM | A498 17.2 µM | M14 9.79 µM | Hs-578T 17.4 µM | MCF7 13 µM | SF-268 16.7 µM | TK-10 11.8 µM | LOX IMVI 2.06 µM | PC-3 14.6 µM | UACC-62 10.1 µM | SF-295 21.4 µM | NCI-H522 1.95 µM | RXF 393 2.88 µM | SK-MEL-5 8.49 µM | SK-MEL-28 16.7 µM | IGROV-1 13.3 µM | HT-29 13.1 µM | RPMI-8226 2.25 µM | SW-620 2.18 µM | 786-0 7.94 µM | SN12C 14.7 µM | HCC 2998 17.1 µM | MOLT-4 1.21 µM | NCI-H23 18.3 µM | T47D 17.9 µM | HOP-92 7.93 µM | NCI-H460 15.9 µM | OVCAR-3 15.4 µM | DU-145 19.5 µM | HCT-116 7.05 µM | SNB-75 13.6 µM | SF-539 16.1 µM | BT-549 14.2 µM | KM12 15.6 µM | SK-OV-3 13.4 µM | OVCAR-4 2.73 µM | HOP-62 18.2 µM | SR 1.8 µM | UO-31 9.31 µM | NCI/ADR-RES 22.8 µM | MDA-N 8.2 µM | MDA-MB-231 11.1 µM | ACHN 8.04 µM | K562 2.88 µM | MDA-MB-435 14.2 µM | COLO 205 6.27 µM | Malme-3M 12.3 µM | A549 19.5 µM | OVCAR-8 10.5 µM

CC1=C/C(O)CC(=O)Cc2nc(co2)C(=O)N2CCC=C2C(=O)OC(C(C)C)C(C)/C=C/C(=O)NC\C=C\1.CCC1NC(=O)C(NC(=O)c2ncccc2O)C(C)OC(=O)C(c2ccccc2)NC(=O)C2CC(=O)CCN2C(=O)C(Cc2ccc(N(C)C)cc2)N(C)C(=O)C2CCCN2C1=O (stereo unspecified) ({Picolinoyl(3-OH)}-T[Abu]P[ξNMePhe(4-NMe2)][ξPip(4-oxo)][Phg]; ester 1-C; configuration not given here)
inactive: SNB-19 13.1 µM | CCRF-CEM 1.9 µM | CAKI-1 28.2 µM | NCI-H226 13.6 µM | EKVX 13.6 µM | UACC-257 6.08 µM | SK-MEL-2 7.21 µM | HL-60 3.71 µM | U-251 11.7 µM | OVCAR-5 31.5 µM | A498 10 µM | M14 15 µM | Hs-578T 18.2 µM | MCF7 7.29 µM | SF-268 24.4 µM | TK-10 27.2 µM | LOX IMVI 3.87 µM | PC-3 8.07 µM | UACC-62 13 µM | SF-295 3.66 µM | NCI-H522 9.1 µM | RXF 393 11.4 µM | SK-MEL-5 4.91 µM | SK-MEL-28 13.7 µM | IGROV-1 11.4 µM | HT-29 6.41 µM | RPMI-8226 4.68 µM | SW-620 7.5 µM | 786-0 15.5 µM | SN12C 9.35 µM | HCC 2998 11.6 µM | MOLT-4 3.64 µM | NCI-H23 7.05 µM | T47D 15.4 µM | HOP-92 3.78 µM | NCI-H460 3.75 µM | OVCAR-3 8.04 µM | DU-145 7.33 µM | HCT-116 6.4 µM | SNB-75 24.7 µM | SF-539 17.5 µM | BT-549 16.9 µM | KM12 10.4 µM | SK-OV-3 25.5 µM | OVCAR-4 12.1 µM | HOP-62 14.6 µM | SR 3.86 µM | UO-31 20.8 µM | NCI/ADR-RES 25.3 µM | MDA-N 8.07 µM | MDA-MB-231 7.55 µM | ACHN 7.96 µM | K562 4.72 µM | MDA-MB-435 12 µM | COLO 205 6.59 µM | Malme-3M 12.8 µM | A549 16.7 µM | OVCAR-8 25.6 µM
9.51 µM: HCT-15
